The NIST ThermoML archive (doi:10.1021/je2008704)

Details: Liquid, Ebulliometric method (Recirculating still)

OCCO [1,2-ethanediol]
Details	vapor or sublimation pressure [kPa]
412.81 K	13.33
422.78 K	20
430.26 K	26.66
436.37 K	33.33
441.5 K	40
445.96 K	46.66
449.93 K	53.33
453.52 K	60
456.78 K	66.66
459.79 K	73.33
462.58 K	79.99
465.18 K	86.66
467.62 K	93.32
469.48 K	98.66
470.02 K	100.4

CCO [ethanol]
Details	vapor or sublimation pressure [kPa]
329.67 K	40
336.06 K	53.33
341.23 K	66.66
345.59 K	79.99
349.38 K	93.32
351.03 K	99.74

O [water]
Details	vapor or sublimation pressure [kPa]
349.09 K	40
356.17 K	53.33
361.87 K	66.66
366.69 K	79.99
370.88 K	93.32
372.76 K	100
